Patent US7915304B2, “Phenyl substituted maleimides as medicaments for blocking degenerative tissue damages by inhibiting MPT” (Congenia S.r.l., priority 2006, dated 2011)

Columns and labels:
[1] = test system: permeability transition pore (PTP); test: Mitochondrial in vitro assay: calcium retention capacity (CRC) of isolated mouse liver mitochondria; type: biochemical; conditions: ratio of calcium required to open the PTP with vs without compound, 10 μM Ca2+ pulses at 1 min intervals, compound added 1 min before, 25° C.
Text: The mitochondrial in vitro assay is based on the characteristics of mitochondrial organelles which allow the study of mitochondrial function in reductive sub-cellular in vitro systems. It is possible to investigate many mitochondrial processes in isolated mitochondrial suspension obtained from different tissues.
The ability of isolated mitochondria to uptake calcium from outside is a direct measure of mitochondrial integrity and functioning. Indeed MPT impairs the ability of mitochondria to upload calcium through specific channels that require an intact organelle structure. The assay takes advantage of this phenomenon to evaluate the ability of the invention compounds to interfere with MPT on isolated mitochondria.
Mitochondria were prepared from the livers of male 129 or C57/B6 mouse weighing 20-25 g. The animals were sacrificed by cervical dislocation. The livers were isolated and placed in ice-cold 0.25 M sucrose, 10 mM Tris-HCl, 0.1 mM ethylene-bis(oxoethylenenitrilo)tetraacetic acid (EGTA), pH 7.4 The livers were rinsed three-four times with ice-cold medium, minced with scissor and passed through a manual Potter homogenizer kept in an ice-water bath. The homogenate was diluted to 50 ml per liver, and unbroken cells and nuclei were sedimented by centrifugation at 900×g in a Beckman Avanti™ J-25 refrigerated centrifuge kept at 4° C. for 10 min. The supernatant was carefully decanted and centrifuged at 7000×g in the same centrifuge for 10 min. The supernatant was discarded and the mitochondrial pellets were carefully resuspended in ice-cold isolation medium and spun as above.
The resulting mitochondrial pellets were resuspended in a small amount of ice-cold isolation medium, and stored on ice. Mitochondria protein content was determined with the biuret assay.
The mitochondrial Ca^2+ retention capacity (CRC) is a sensitive measure of the propensity of mitochondria to open the PTP after Ca^2+ uptake. Since mitochondria are bidirectionally permeable to Ca^2+ owing to the presence of a Ca^2+ uniporter in their inner membrane, the mitochondrial membrane potential (Δψm) is responsible for the Ca^2+ accumulation in the mitochondrial matrix and consequent Ca^2+ gradient. Any drop in Δψm, such as depolarization caused by H^+ influx during PTP opening, is expected to result in a redistribution of Ca^2+ between the intra and extra-mitochondrial spaces, during which Ca^2+ uses all available routes through the mitochondrial membrane.
CRC of mitochondrial preparations was assessed fluorimetrically in the presence of the fluorescent Ca^2+ indicator Calcium Green-5N (excitation-emission: 505-535 nm) with a Perkin-Elmer LS 55 spectrofluorimeter equipped with a magnetic stirrer and thermostatic control set to 25° C. (Ichas, F.; Jouaville, L. S.; Mazat, J. P. Mitochondria are excitable organelles capable of generating and conveying electrical and calcium signal. Cell., 1997, 89, 1145-1153). Calcium Green-5N is a fluorometric probe that is not permeable to membranes and when added to a mitochondrial suspension is able to detect the presence of Ca^2+ in the extra-mitochondrial medium. Mitochondria were loaded with a train of 10 μM Ca^2+ pulses at 1 min intervals. Under these conditions mitochondria took up actively and retained Ca^2+ until a point at which mitochondria underwent a fast process of Ca^2+ release due to the opening of the PTP. The number of calcium pulses (final concentration of calcium) required to open the PTP is the mitochondrial CRC. This Ca^2+ loading protocol thus provides a convenient and sensitive assay for measuring PTP opening and it is used to assess the ability of the compounds of the invention to inhibit PTP opening. Compounds were added directly to the mitochondrial solution 1 min. prior to the start of calcium pulsing and the number of calcium pulses required to open the PTP was determined. […]

[2] = test system: experimental autoimmune encephalomyelitis (EAE); test: Experimental autoimmune encephalomyelitis (EAE) model of multiple sclerosis; type: in vivo, mouse
Text: Experimental autoimmune encephalomyelitis (EAE) is possibly the best animal model to study demyelinating diseases of the central nervous system (CNS) such as multiple sclerosis (MS) Since the first classical studies EAE has been an invaluable tool for dissecting mechanisms of the immune response against self-antigens within the CNS, as well as to test new therapies for the treatment of autoimmune diseases. Rodents are susceptible to EAE. Depending upon species, antigens and mode of sensitisation, EAE can have a monophasic acute course or a chronic relapsing, and even a primarily progressive course that mimics human MS. Acute models of EAE allow faster experimentation and observation, whereas chronic models allow wider observation, such as preventive versus therapeutic treatments.
Seven week-old C57 black/6N female mice were immunized with an emulsion of mycobacterium tubercolosis and the peptide spanning the sequence 35aa-55aa of the myelin oligodendrocyte glycoprotein (MOG) dissolved in phosphate buffer and Freud adjuvant. Mice were injected subcutaneously, in three different sites, with a total of 0.3 ml of emulsion. Immediately after the immunization mice were injected intravenously with 0.1 ml of pertussin toxin ([…]). […]
Starting from day 10 after the immunization mice were evaluated daily for weight loss and locomotive defects. […]

[3] = test system: retinal neo-vascularisation; test: Mouse retinopathy of prematurity (ROP) model of ischemia-induced retinal neo-vascularisation; type: in vivo; conditions: ROP mice
Description: Retinal neo-vascularisation was assessed in a mouse retinopathy of prematurity (ROP) model of ischemia-induced retinal neo-vascularisation. In rodents, retinal vascularisation is generally completed by post-natal day 14 (P14). Oxygen treatment during the second week of life partially causes vaso-obliteration of immature retinal vessels around the optic disk and it blocks subsequent vascular development of the deep retinal layers. When oxygen treatment is stopped, the ischemia of the retina triggers abnormal vessel growth, i.e., retinal neovascularisation.
At postnatal day 7 (P7), newborn mice were exposed to 75% O2 for 5 days in an oxygen incubator. […] Oxygen concentration was monitored by an Oxygen Monitor (Miniox III; Catalyst Research, MD). […]
At day 12 (P12) animals were removed from the oxygen exposure chamber and injected intra-vitreously with a Hamilton syringe with compounds or vehicle solution. […] Flat-mounted retinas were photographed by fluorescence microscopy (Zeiss Axioplan Thornwood, N.Y.) and by computer-imaging (KS300, Kontron Electronik GmbH, Germany) retinal images captured. […]
Eyes from the same groups, at p17, were fixed and sections were prepared and stained with hematoxylin and eosin to quantify the amount of endothelial cells developed. […]

Structure (SMILES): O=C1C=C(c2ccc(F)cc2)C(=O)N1c1cccc(Cl)c1 [Example 2, 1-(3-chlorophenyl)-3-(4-fluorophenyl)-pyrrole-2,5-dione]
- CRC efficacy [1]: 2.5

Structure (SMILES): O=C1C=C(c2cccc(F)c2)C(=O)N1c1cccc(Cl)c1 [Example 9, 1-(3-chlorophenyl)-3-(3-fluorophenyl)-pyrrole-2,5-dione]
- CRC efficacy [1]: 2.75

Structure (SMILES): O=C1C=C(c2cccc(F)c2)C(=O)N1c1ccc(F)c(Cl)c1 [Example 10, 1-(3-chloro-4-fluorophenyl)-3-(3-fluorophenyl)-pyrrole-2,5-dione]
- CRC efficacy [1]: 2.27

Structure (SMILES): O=C1C=C(c2ccccc2F)C(=O)N1c1cccc(Cl)c1 [Example 13, 1-(3-chlorophenyl)-3-(2-fluorophenyl)-pyrrole-2,5-dione]
- CRC efficacy [1]: 2

Structure (SMILES): O=C1C=C(c2ccccc2F)C(=O)N1c1ccc(F)c(Cl)c1 [Example 14, 1-(3-chloro-4-fluorophenyl)-3-(2-fluorophenyl)-pyrrole-2,5-dione]
- CRC efficacy [1]: 2.22

Structure (SMILES): O=C1C=C(c2ccccc2)C(=O)N1c1cccc(Br)c1 [Example 20, 1-(3-bromophenyl)-3-phenyl-pyrrole-2,5-dione]
- CRC efficacy [1]: 2.33

Structure (SMILES): Cc1cccc(N2C(=O)C=C(c3ccccc3)C2=O)c1 [Example 22, 1-(3-methylphenyl)-3-phenyl-pyrrole-2,5-dione]
- CRC efficacy [1]: 2.57

Structure (SMILES): O=C1C=C(c2ccccc2)C(=O)N1c1cccc(C(F)(F)F)c1 [Example 31, 1-(3-trifluoromethylphenyl)-3-phenyl-pyrrole-2,5-dione]
- CRC efficacy [1]: 2

Structure (SMILES): O=C1C=C(c2ccc(O)cc2)C(=O)N1c1cccc(Cl)c1 [Example 36, 1-(3-chlorophenyl)-3-(4-hydroxyphenyl)-pyrrole-2,5-dione]
- CRC efficacy [1]: 1.87

Structure (SMILES): COc1ccc(C2=CC(=O)N(c3cccc(Cl)c3)C2=O)cc1 [Example 48, 1-(3-chlorophenyl)-3-(4-methoxyphenyl)-pyrrole-2,5-dione]
- CRC efficacy [1]: 2.11

Structure (SMILES): Cc1cccc(N2C(=O)C=C(c3ccc(Cl)cc3)C2=O)c1 [Example 53, 1-(3-methylphenyl)-3-(4-chlorophenyl)-pyrrole-2,5-dione]
- CRC efficacy [1]: 2.17

Structure (SMILES): O=C1C=C(c2ccc(Cl)cc2)C(=O)N1c1cccc(Cl)c1 [Example 55, 1-(3-chlorophenyl)-3-(4-chlorophenyl)-pyrrole-2,5-dione]
- CRC efficacy [1]: 2.33

Structure (SMILES): Cc1ccc(C2=CC(=O)N(c3cccc(Cl)c3)C2=O)cc1 [Example 57, 1-(3-chlorophenyl)-3-(4-methylphenyl)-pyrrole-2,5-dione]
- CRC efficacy [1]: 2.66

Structure (SMILES): COc1ccc(Cl)cc1N1C(=O)C=C(c2ccccc2)C1=O [Example 58, 1-(5-chloro-2-methoxyphenyl)-3-phenyl-pyrrole-2,5-dione]
- CRC efficacy [1]: 1.86

Structure (SMILES): O=C1C=C(c2ccccc2)C(=O)N1c1ccc(F)c(Cl)c1 [Example 61, 1-(3-chloro-4-fluorophenyl)-3-phenyl-pyrrole-2,5-dione]
- CRC efficacy [1]: 2.83

Structure (SMILES): O=C1C=C(c2ccccc2)C(=O)N1c1cccc(Cl)c1 [Example 63, 1-(3-chlorophenyl)-3-phenyl-pyrrole-2,5-dione]
- CRC efficacy [1]: 2.5
- treated mice developing inferior limb paresis after 20 days ([2]; 5 mg/kg intraperitoneally every day from day 4, approximately 30% of the untreated EAE mice developed it): no one
- development of the disease (average clinical score, non parametric scale 0-5) ([2]; C57 black/6N female mice, MOG 35-55 immunization, 5 mg/kg intraperitoneally every day from day 4, FIG. 2): significantly prevented
- neovascularization, fluorangiographic analysis ([3]; intravitreal injection at P12, approximately 1 or 2 or 4 microM in the vitreum, analysis at p17, vs DMSO vehicle): significant reduction
- number of endothelial cells present in the eye (per section) ([3]; intravitreal injection at P12, eyes at p17, hematoxylin and eosin sections, FIG. 1): significantly reduces
